Source: patent US20140045807A2, “THE USE OF 3-METHOXY-PREGNENOLONE FOR THE PREPARATION OF A DRUG FOR TREATING A TRAUMATIC BRAIN INJURY” (priority 2004, published 2014)

Assays:
[1] = MAP4343 in the brain after TBI (LC-MS/MS); assay type: in vivo, rat; conditions: 20 mg/kg single injection 2 h after TBI; 4 h after injection; CHI, LFP, CCI models
Description: FIG. 16: 3-methoxy-PREG (MAP4343) concentrations in the brain 4 h after a single injection of MAP4343 (20 mg/kg, injected 2 h after TBI or sham-surgery).
MAP4343 was dissolved in sesame oil and injected subcutaneously. Two distinct doses of MAP4343 (10 and 20 mg/kg) were tested in each model. The injection took place 2 h after trauma.
In order to establish whether TBI modifies the passage of MAP4343 into the brain, MAP4343 was measured by liquid chromatography associated to tandem mass spectrometry (LC-MS/MS) in the brain of animals sacrificed 6 h after CHI, LFP or CCI (4 h after MAP4343 single injection).
In order to establish whether TBI modifies the passage of 3-methoxy-PREG (MAP4343) into the brain, MAP4343 was measured by liquid chromatography coupled to tandem mass spectrometry LC-MS/MS in the brain of animals sacrificed 6 h after CHI, LFP or CCI (4 h after MAP4343 injection).

[2] = test system: CHI traumatized animals; assay: MRI of ventricular dilatation after Closed Head Injury (CHI); assay type: in vivo, rat; conditions: 20 mg/kg starting 24 hours post-trauma, day 28, compared to the vehicle
Description: FIG. 17: Ventricular dilatation of Control animals injected with sesame oil (Control) and CHI traumatized animals injected with sesame oil (CHI-D0), or MAP4343 at 10 mg/kg (CHI-D1) or 20 mg/kg (CHI-D2) at day 28 post-trauma. (A) Representative MRI images.
The model “Closed Head Injury” (CHI), also commonly known as “weight-drop”, “impact-acceleration” or Marmarou model, allows the induction of TBI on a closed skull and generates diffuse axonal injuries (Holtzer et al 2001). After anesthesia induction, the scalp was incised, a piece of metal (diameter […], height 3 mm)—designed to protect against skull fracture—was glued to the skull, between the lambda and bregma. The animal was then placed on a foam bed and a cylindrical metallic 230-g weight was dropped from 2 m through a metal tubing onto the disk. At the very moment of the impact, the head of the animal plunged briefly in the foam bed, which leads to an acceleration/deceleration of the brain inside the skull. […]
MRI imaging of rats was performed at day 28 post-trauma. Based on MRI imaging, ventricular dilatation induced by CHI trauma was analyzed in CHI traumatized rats injected from 24 hours post-trauma with sesame oil (CHI-D0), or 3-methoxy-PREG (MAP4343) at 10 mg/kg (CHI-D1) or 20 mg/kg (CHI-D2).

[3] = biological target: T1, human progesterone receptor(PR) (Homo sapiens, UniProt P06401); assay: Test of progesterone receptor agonist activity (luciferase transactivation, HEK293T); assay type: cell-based; conditions: increasing amounts, 24 hours
T1 construct: expressed in transfected cells; host or cells: HEK293T
T1 sequence (P06401 1-933): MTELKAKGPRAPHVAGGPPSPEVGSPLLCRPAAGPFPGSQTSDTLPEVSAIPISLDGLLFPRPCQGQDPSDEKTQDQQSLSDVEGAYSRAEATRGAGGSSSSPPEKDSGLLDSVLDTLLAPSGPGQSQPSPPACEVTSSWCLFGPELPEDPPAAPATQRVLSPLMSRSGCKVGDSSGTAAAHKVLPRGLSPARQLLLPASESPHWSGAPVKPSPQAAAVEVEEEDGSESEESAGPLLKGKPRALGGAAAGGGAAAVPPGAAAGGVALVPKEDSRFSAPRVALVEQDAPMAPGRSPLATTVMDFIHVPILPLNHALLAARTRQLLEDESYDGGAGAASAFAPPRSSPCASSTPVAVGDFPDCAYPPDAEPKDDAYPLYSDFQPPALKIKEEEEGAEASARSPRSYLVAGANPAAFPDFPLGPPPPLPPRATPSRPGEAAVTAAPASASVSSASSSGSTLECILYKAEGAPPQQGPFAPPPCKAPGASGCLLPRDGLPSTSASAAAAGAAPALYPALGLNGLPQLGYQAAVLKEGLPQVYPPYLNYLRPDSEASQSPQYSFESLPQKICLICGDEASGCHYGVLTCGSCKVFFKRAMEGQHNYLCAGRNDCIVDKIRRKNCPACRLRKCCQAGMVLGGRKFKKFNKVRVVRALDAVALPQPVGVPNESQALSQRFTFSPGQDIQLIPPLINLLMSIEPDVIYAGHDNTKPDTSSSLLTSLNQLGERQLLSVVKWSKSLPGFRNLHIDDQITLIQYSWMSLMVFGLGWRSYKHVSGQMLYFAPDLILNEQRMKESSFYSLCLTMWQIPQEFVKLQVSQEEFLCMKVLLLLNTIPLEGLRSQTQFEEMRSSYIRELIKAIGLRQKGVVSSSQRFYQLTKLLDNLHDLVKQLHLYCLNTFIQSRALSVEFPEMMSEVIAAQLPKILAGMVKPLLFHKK
Description: The main experimental setting used is the following: HEK293T cells were transiently transfected, using calcium phosphate precipitation technology, with expression vectors pSG5hPR (which permits expression of human progesterone receptor(PR)), pFC31-luc (contains the luciferase gene under the control of the MMTV promoter, which is in turn activated by binding of a progestin to progesterone receptor) and pcbetagal (which permits expression of betagalactosidase), and cultured during 24 hours with increasing amounts of various compositions: • 1. […] Test of progesterone receptor […] activity: transfected cells were cultured with progesterone (1 nM) and increasing amounts of RU486 (a well-known progesterone receptor antagonist) or 3-methoxy-pregnenolone. • With this setting, a compound with progesterone receptor antagonist activity competes with progesterone for the occupation of progesterone receptor and results in a progressive loss of transactivation activity when the amount of this compound is increased compared to progesterone.

Which “MAP4343 concentrations in the brain” value [1] does the source give for `CO[C@H]1CC[C@@]2(C)C(=CC[C@H]3[C@@H]4CC[C@H](C(C)=O)[C@@]4(C)CC[C@@H]32)C1` [3-methoxy-PREG, 3β-methoxy-pregna-5-ene-20-one] here?
Its value is “concentrations of MAP4343 of significant therapeutic interest reach the brain”.

What about the “ventricular dilatation (ventricles area, MRI)” value [2] of the same compound?
The value was “significantly decreases the ventricular dilatation”.

And the “progesterone receptor agonist (transactivation) activity” value [3]?
The value was “does not have progesterone receptor agonist activity”.
